Columns and labels:
[1] = tested on: DRG neuronal explant cultures; assay: in vitro Wallerian degeneration assay, DRG explant neurite transection; assay type: cell-based, mouse; conditions: for neurite protection after transection: 1 mM applied for 24 hours before neurite transection; for increase in intact neurites at 48 hours after transection: 1 mM exogenous application for 24 hours
Description: To identify the mechanism of delayed axonal degeneration mediated by the Wlds protein, we employed an in-vitro Wallerian degeneration model. Primary DRG explant neurons were infected with lentivirus expressing the appropriate proteins, and axons were injured by either removal of the neuronal cell body (transection) or growth in vincristine (toxic).
Mouse DRG explants from E12.5 embryos were cultured in the presence of 1 nM nerve growth factor. Non-neuronal cells were removed from the cultures by adding 5-fluorouracil to the culture medium. Transection of neurites was performed at 10-20 DIV using an 18-gauge needle to remove the neuronal cell bodies. Incubation with β-nicotinamide adenine dinucleotide (Sigma) or Sirtinol (Calbiochem) was performed using conditions indicated in the text or figures.
Quantitative analysis of axonal degeneration was performed as previously described (Zhai, et al., Neuron 39:217-25, 2003). Briefly, the cultures were examined using phase contrast microscopy at the indicated times. Axons with a fragmented, non-refractile appearance were designated as “degenerated.” At each time point, at least 200 singly distinguishable axons were blindly scored from several randomly taken images of each culture. Each condition was tested in triplicate explants in each experiment. Results were obtained from 2-4 independent experiments for each condition. Statistical analysis was performed by Student's T test. For calculations of neurite-covered area, digitally captured images from quadruplicate samples of two independent experiments were analyzed using analysis 3.1 software (Soft Imaging System, Lakewood, Colo.).
Cell culture, in vitro axotomy, and quantification of axonal degeneration. Mouse DRG explants from E12.5 embryos were cultured in the DMEM containing 10% FCS and 1 nM nerve growth factor. Non-neuronal cells were removed from the cultures by adding 5-fluorouracil to the culture media. Transection of neurites was performed at 14-21 DIV using an 18-gauge needle to remove the neuronal cell bodies. Lentiviral expression vectors were generated. Lentiviral infection was performed 3-7 days prior to axonal transection for 24 hr. Quantitative analysis of neurite degeneration was performed.

neuro2A cells [2] = assay: neurite outgrowth in Neuro2a cells; assay type: cell-based
Description: FIG. 11A-D illustrates the resveratrol and AICAR stimulation of neurite outgrowth in Neuro2a cells. Neuro2a cells were switched to serum-starvation medium (medium containing 0.2% FCS) and treated with DMSO (vehicle control), resveratrol (10 μM) or AICAR (1 mM). (A) Serum deprivation of Neuro2a cells results in growth of short neurites that increase in length over 72 h. (B) Resveratrol induced rapid neurite outgrowth resulting in elaborate neurite network formation by 48 h. (C) AICAR stimulated extensive neurite outgrowth similar to that observed with resveratrol. (D).
FIG. 12A-M illustrates the dependency of resveratrol-induced neurite outgrowth and mitochondrial biogenesis on AMPK. Neuro2a cells were infected with lentivirus expressing GFP only (FUGW, control), dominant negative AMPK (dnAMPK) or constitutively active AMPK (caAMPK). Three days later cells were shifted to serum-starvation medium containing DMSO (control) or resveratrol (10 μM). In addition, uninfected Neuro2a cells in serum-starvation medium were treated with resveratrol alone, the AMPK inhibitor Compound C (CC, Biomol International L.P. (Plymouth Meeting, Pa.)) (10 μM) alone or with resveratrol and CC together. Images of the cultures captured in bright field and green fluorescence were overlaid to visualize neurite outgrowth. […] Neurite length in cells treated with caAMPK+resveratrol is also shown (G). […] Values were normalized to the 18S transcript. Data shown is representative of two independent experiments.
Cell culture and Reagents. Neuro2 cells obtained from ATCC were grown in MEM with 1.5 g/L sodium bicarbonate, 0.1 mM nonessential amino acids, 0.1 mM sodium pyruvate, 2 mM L-glutamine with 10% FCS. For differentiation, cells were switched to serum-starvation medium (containing 0.2% FCS). For neurite outgrowth measurements, experiments were done in quadruplicate and 100 neurites per well were randomly measured using the Metamorph software. Dorsal root ganglia sensory and cortical neurons were established from E13.5 mouse embryos, maintained in neurobasal medium supplemented with B27 (and NGF for DRG neurons) and infected with lentiviruses as described (Araki et al., 2004, Science 305:1010-1013; Hawley et al., 2005, Cell Metab 2:21-23). Resveratrol was a gift from Sirtris Pharmaceuticals (Cambridge Mass.) and AICAR was obtained from Toronto Research (North York, Canada). Splitomycin and Compound C were purchased from Biomol (Plymouth Meeting, Pa.) and Calbiochem (San Diego, Calif.). Sirtinol and nicotinamide were purchased from Sigma (Saint Louis, Mo.)
Neuro2a cells are a widely used as in vitro model of neuronal differentiation. These cells cease to proliferate and begin to differentiate, as evidenced by neurite outgrowth, in response to serum starvation, retinoic acid, or growth factors like neurotrophins and GDNF family ligands. […] Neuro2a cells grown under serum starvation conditions (0.2% fetal calf serum) were treated with AICAR (1 mM) or resveratrol (10 μM).
Since resveratrol activated AMPK and altered the differentiation of Neuro2a cells, we next asked whether AMPK activity was required for resveratrol-induced neurite outgrowth. To address this issue, we infected Neuro2a cells with lentivirus expressing either GFP alone (FUGW-control) or dominant negative AMPK (dnAMPK). After 3 days growth to allow robust lentiviral transgene expression, the medium was replaced with serum starvation medium. […] Resveratrol-induced neurite outgrowth was reduced in the presence of the AMPK pharmacological inhibitor Compound C (CC 10 μM) further supporting the importance of AMPK activity for resveratrol-induced neurite outgrowth.

[3] = tested on: Tfam, PGC-1α and MFN2 mRNA; assay: mitochondrial biogenesis markers, quantitative RT-PCR in Neuro2a cells; assay type: cell-based; conditions: with resveratrol 10 μM; Compound C 10 μM or dominant negative AMPK expression
Description: Three days later cells were shifted to serum-starvation medium containing DMSO (control) or resveratrol (10 μM). In addition, uninfected Neuro2a cells in serum-starvation medium were treated with resveratrol alone, the AMPK inhibitor Compound C (CC, Biomol International L.P. (Plymouth Meeting, Pa.)) (10 μM) alone or with resveratrol and CC together. […] Values were normalized to the 18S transcript. Data shown is representative of two independent experiments.
Protein and mRNA analysis. […] Quantitative RT-PCR analysis was performed using Sybr-Green methodology on a model 7700 instrument (Applied Biosystems) as previously described (Araki et al., 2004, Science 305:1010-1013).
We treated Neuro2a cells for 3d with either DMSO (control) or resveratrol (10 μM) in the presence or absence of the AMPK inhibitor Compound C (10 μM). We assessed mitochondrial biogenesis by monitoring mRNA levels of mitofusin 2 (MFN2), a mitochondrial protein and marker of mitochondrial mass and two key regulators of mitochondrial biogenesis, peroxisome proliferator activated receptor γ coactivator 1α (PGC1α) and mitochondrial transcription factor A (Tfam) (Kelly, et al., 2004, Genes Dev 18:357-368).

DRG neurons = assay: axonal injury of DRG neurons after hypoxia and reoxygenation; assay type: cell-based; conditions: preincubation 45 min or lentiviral expression; 0.1% O2 8 or 16 hrs, 20 hrs reoxygenation
Description: FIG. 18 illustrates that activation of AMPK protects axons while inhibition of AMPK function enhances axonal injury during oxygen deprivation.
To examine whether AMPK activation prior to hypoxic stress protects axons from injury, either constitutively active AMPK (CaAMPK) was expressed in DRG neurons, or neurons were preincubated with the AMPK activator AICAR for 45 min prior to hypoxia. […] Thus, treatments that increase AMPK activity (e.g. resveratrol, AICAR) can block the axonal damage and are neuroprotective.

[4] = tested on: optic nerve (retinal ganglion cell axons); assay: optic nerve transection after intravitreal injection, neurofilament Western blot; assay type: in vivo, rat; conditions: 24 hours before transection, 4 days after transection
Description: FIG. 9 illustrates optic nerve transection after intravitreal injection of NAD biosynthetic substrates NAD, NMN, NmR, or Nam was injected into intravitreal compartment of left rat eye and allowed to incorporate retinal ganglion cells for 24 hours after which, left optic nerve was transected by eye enucleation and right and left optic nerves were collected at 4 days after transection and analyzed by Western blotting in which optic nerves transected from […] without any treatment prior to axotomy were used for negative control; showing in the figure, the quantitative analysis data of percentage of remaining neurofilament immunoreactivity from transected optic nerve relative to non-transected±S.D.
Administration of NAD biosynthetic substrates and optic Nerve transection. Nam, NMN, NmR, or NAD was dissolved in PBS at the concentration of 100 mM or 1 M. Each of 5 μl solution was injected into left intravitreal component under the anesthesia at a rate of […]. The left optic nerve was transected at 24 hours after intravitreal injection and optic nerve was recovered at indicated time. Optic nerve tissue was homogenized in 100 μl of a buffer containing 100 mM tris-HCl (pH 6.8), 1% SDS, and 1 mM DTT. Fifty μg of protein for each sample was analyzed by the Western blotting using anti-neurofilament antibody 2H3 (Developmental Studies Hybridoma Center) and peroxidase-conjugated secondary antibody (Jackson ImmunoResearch). The degeneration rate was calculated from the ratio of the neurofilament immunoreactivity of transected vs. contralateral nerves.
Transection of optic nerve is an in vivo model which can be used to investigate mechanisms leading to Wallerian degeneration and following retinal ganglion cell (RGC) death observed in human diseases such as glaucoma. In the C57BL/Wlds mouse strain, optic nerve degeneration during Wallerian degeneration after axotomy is dramatically slowed. In addition, intravitreal injection is used for screening of compounds that protect RGC axon from degeneration in vivo and thus we can asses the axon protective effect of each NAD biosynthetic substrates in vive by intraocular injection of compounds including NAD, NMN, NmR, and Nam. From in vitro Wallerian degeneration assay, 1 mM of NAD, NMN, and NmR in the culture media is enough to protect axon from degeneration. We initially injected 5 μl of 100 mM or 1 M NAD solution into left intravitreal compartment. After 24 hours incubation, left optic nerve was transected and control (right) and axotomized (left) optic nerve were collected at 3, 4, and 5 days after transection. Neurofilament immunoreactivity from the axotomized optic nerve was measured and normalized against the value obtained from the right side of the optic nerve.

neuro2A cells [5] = assay: cellular ATP levels, luciferase-based assay in neuro2A cells; assay type: cell-based; conditions: 2 hr
Description: To explore the role of polyphenols, in particular, of resveratrol, we tested whether resveratrol altered the activity of AMPK in neuronal cells. Neuro2a neuroblastoma cells were treated with resveratrol (10 μM) and AMPK activation was examined using phospho-AMPK specific antibodies. […] To confirm that AMPK activation by resveratrol results in typical AMPK-mediated downstream responses, we monitored phosphorylation of ACC (acetyl Co-A carboxylase), a primary target of activated AMPK. […] To examine a potential mechanism of resveratrol-mediated AMPK activation, we measured cellular ATP levels as a decreased ATP:AMP ratio increases the phosphorylation of AMPK. ATP levels were monitored using a luciferase-based assay in neuro2A cells treated with resveratrol or Oligomycin, an inhibitor of mitochondrial oxidative phosphorylation and therefore ATP production. While the ATP concentration dropped from 5.874 μM in DMSO-treated cells (control) to 0.976 μM in Oligomycin treated cells within 2 hr, the ATP concentration in resveratrol-treated Neuro2a cells was not altered from control either at 2 hr (6.33 μM) or 24 hr (6.42 μM).

Structure (SMILES)	neurofilament immunoreactivity of axotomized optic nerve, of non-axotomized optic nerve ([4]; 5 μl of 100 mM intravitreal)	neurite protection after transection [1]	increase in intact neurites at 48 hours after transection [1]	further results
NC(=O)c1cccc(N)c1 [3AB, 3-aminobenzamide, reference compound]				effect on NAD-dependent axonal protection (NDAP) ([1]; neurons cultured in 1 mM NAD, Sirtinol 100 μM, 3AB 20 mM or siRNA lentivirus, 12 to 72 hr after transection): had no effect on NDAP
c1cc(-c2cnn3cc(-c4ccc(OCCN5CCCCC5)cc4)cnc23)ccn1 [Compound C]				effect on resveratrol-stimulated neurite outgrowth (neuro2A cells [2]; resveratrol 10 μM, Compound C 10 μM, SIRT1 inhibitors, STO 609 2.5 μM or dnAMPK expression): reduced; neurite growth, inhibitor by itself (neuro2A cells [2]; without resveratrol): did not cause any significant inhibition of neurite growth; effect on resveratrol-induced upregulation of mitochondrial markers [3]: severely diminished; axonal injury (axonal beading) after hypoxia (DRG neurons): severe axonal injury
NC(=O)c1ccc[n+]([C@@H]2O[C@H](COP(=O)([O-])OP(=O)(O)OC[C@H]3O[C@@H](n4cnc5c(N)ncnc54)[C@H](O)[C@@H]3O)[C@@H](O)[C@H]2O)c1 [NAD, nicotinamide adenine dinucleotide]	78±22%			neurofilament immunoreactivity of axotomized optic nerve, of non-axotomized optic nerve ([4]; 5 μl of 1 M intravitreal): 77±27%
NC(=O)c1ccc[n+]([C@@H]2O[C@H](COP(=O)([O-])O)[C@@H](O)[C@H]2O)c1 [NMN, nicotinamide mononucleotide]	60±25%	successfully saved neurites from degeneration	comparable increase in intact neurites	
O=C(O)c1cccnc1 [Na, nicotinic acid]		failed to save neurites		
Nc1ncnc2c1ncn2[C@@H]1O[C@H](COP(=O)(O)OP(=O)(O)OC[C@H]2O[C@@H]([n+]3cccc(C(=O)O)c3)[C@H](O)[C@@H]2O)[C@@H](O)[C@H]1O [NaAD, nicotininc acid adenine dinucleotide]		slight protection	less increase in intact neurites at 48 hours compared with NAD	
O=C(O)c1ccc[n+]([C@@H]2O[C@H](COP(=O)(O)O)[C@@H](O)[C@H]2O)c1 [NaMN, nicotinate mononucleotide]		saved neurites as well as NAD	comparable increase in intact neurites	
NC(=O)c1ccc[n+]([C@@H]2O[C@H](CO)[C@@H](O)[C@H]2O)c1 [NmR, nicotinamide riboside]	72±19%	saved neurites as well as NAD	comparable increase in intact neurites	
CC[C@H]1/C=C/C=C/C[C@@H](C)[C@H](O)[C@@](C)(O)C(=O)[C@@H](C)[C@H](O)[C@@H](C)C(=O)[C@@H](C)[C@H](O)[C@@H](C)/C=C/C(=O)O[C@@H]2[C@H](C)[C@H](CC1)O[C@]1(CC[C@H](C)[C@H](C[C@@H](C)O)O1)[C@H]2C [Oligomycin, reference compound]				ATP concentration (neuro2A cells [5]): 0.976 µM
